{
  "source": "patent US20260184710A1",
  "about": "“CASITAS B-LINEAGE LYMPHOMA PROTOONCOGENE B (CBL-B) DEGRADING COMPOUNDS AND ASSOCIATED METHODS OF USE” (Arvinas Operations, Inc., priority 2022, published 2026)",
  "biological_target": "T1, Cbl-b (Homo sapiens, UniProt Q13191)",
  "T1 construct": "Cbl-b-HiBit KI Jurkat Cells were purchased from Promega; host or cells: Cbl-b-HiBiT knock-in Jurkat cells",
  "T1 sequence (Q13191 whole entry)": "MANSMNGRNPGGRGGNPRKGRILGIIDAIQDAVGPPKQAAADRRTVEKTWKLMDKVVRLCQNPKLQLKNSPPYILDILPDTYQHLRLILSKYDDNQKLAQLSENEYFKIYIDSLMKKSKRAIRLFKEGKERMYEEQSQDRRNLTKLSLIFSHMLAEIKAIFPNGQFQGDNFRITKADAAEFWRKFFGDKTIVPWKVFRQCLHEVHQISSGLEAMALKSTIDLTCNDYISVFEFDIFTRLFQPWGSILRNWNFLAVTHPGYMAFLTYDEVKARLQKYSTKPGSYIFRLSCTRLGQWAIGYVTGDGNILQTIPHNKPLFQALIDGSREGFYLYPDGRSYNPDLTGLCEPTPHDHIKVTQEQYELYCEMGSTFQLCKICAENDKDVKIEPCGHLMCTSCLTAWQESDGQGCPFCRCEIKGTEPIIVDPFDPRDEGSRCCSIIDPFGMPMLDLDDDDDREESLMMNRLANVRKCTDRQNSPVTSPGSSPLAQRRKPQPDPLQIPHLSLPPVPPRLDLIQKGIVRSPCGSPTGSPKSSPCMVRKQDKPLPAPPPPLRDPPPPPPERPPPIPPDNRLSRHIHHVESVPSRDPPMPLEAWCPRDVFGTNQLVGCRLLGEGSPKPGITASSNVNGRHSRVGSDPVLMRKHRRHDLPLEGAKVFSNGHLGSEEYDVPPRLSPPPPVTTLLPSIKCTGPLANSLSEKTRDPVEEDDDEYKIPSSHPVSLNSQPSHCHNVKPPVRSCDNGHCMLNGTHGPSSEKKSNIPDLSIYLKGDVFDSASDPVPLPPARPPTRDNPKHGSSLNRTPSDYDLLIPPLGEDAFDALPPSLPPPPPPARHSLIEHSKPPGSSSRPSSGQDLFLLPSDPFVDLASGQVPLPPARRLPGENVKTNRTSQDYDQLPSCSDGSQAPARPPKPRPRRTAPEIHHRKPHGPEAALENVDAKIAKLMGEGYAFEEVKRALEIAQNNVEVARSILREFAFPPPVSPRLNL",
  "test": "Cbl-b Degradation Method B (Nano-Glo HiBiT lytic detection)",
  "format": "cell-based",
  "conditions": "Cbl-b-HiBit KI Jurkat Cells, incubated at least 6-24 hours; for DC50: half maximal degradation, read-out: Cbl-b Degredation Method B IC50; for Dmax: maximum degradation observed, read-out: Cbl-b Degredation Method B Dmax (%)",
  "experimental": "Cbl-b Degradation Method B [table] Cbl-b-HiBit KI Jurkat Cells were purchased from Promega, and cell media consisted of RPMI 1640 with 10% […] and 1% pen/strep. The cells were counted, measured for viability, and 35 μL of the cell solution was seeded into 384 well flat bottom plates at a ratio of 20,000 cells per 35 μL. After which, the plates were incubated for ˜24 hours at 37° C. and 5% CO2. Compounds were ordered from Evotec in a 384 well plate at a 1 mM top concentration in DMSO and serially diluted 1:3 in DMSO for an 11-point dose response. Using the Bravo instrument, 1 uL of compound solution or DMSO was transferred to 125 uL of media. Each well was treated with 5 μL of compound plus media mixture or DMO and subsequently incubated for at least 6-24 hours at 37° C. and 5% CO2. After incubation, 30 μL of either NanoGlo media was added to each cell, and the plates read on the Synergy Neo2 machine. The concentration of an exemplary compound that leads to half maximal degradation (DC50) as well as the maximum degradation observed (Dmax, conventionally expressed as a percentage of control) is shown below in Table 2.",
  "data": [
    {"smiles": "Cn1cnnc1CC1(c2cccc(N3Cc4c(cc(CN5CCC[C@H](CN6CC[C@@H](OC7CCN(c8ccc9c(c8F)CN(C8CCC(=O)NC8=O)C9=O)CC7)CC6(C)C)C5)cc4C(F)(F)F)C3=O)c2)CC(C#N)C1", "note": "(single isomer, unassigned) [Example 290, (1r**,3r**)-3-[3-(6-{[(3S)-3-{[(4R*)-4-({1-[2-(2,6-dioxopiperidin-3-yl)-4-fluoro-1-oxo-2,3-dihydro-1H-isoindol-5-yl]piperidin-4-yl}oxy)-2,2-dimethylpiperidin-1-yl]methyl}piperidin-1-yl]methyl}-1-oxo-4-(trifluoromethyl)-2,3-dihydro-1H-isoindol-2-yl)phenyl]-3-[(4-methyl-4H-1,2,4-triazol-3-yl)methyl]cyclobutane-1-carbonitrile]", "values": [
      {"measurement": "DC50", "result": "> 500", "unit": "nM"}
    ]},
    {"smiles": "Cn1cnnc1CC1(c2cccc(N3Cc4c(cc(CN5CCC[C@H](CN6CC[C@@H](OC7CCN(c8ccc9c(c8F)CN(C8CCC(=O)NC8=O)C9=O)CC7)CC6(C)C)C5)cc4C(F)(F)F)C3=O)c2)CC(C#N)C1", "note": "(single isomer, unassigned) [Example 291, (1r**,3r**)-3-[3-(6-{[(3S)-3-{[(4R*)-4-({1-[2-(2,6-dioxopiperidin-3-yl)-4-fluoro-1-oxo-2,3-dihydro-1H-isoindol-5-yl]piperidin-4-yl}oxy)-2,2-dimethylpiperidin-1-yl]methyl}piperidin-1-yl]methyl}-1-oxo-4-(trifluoromethyl)-2,3-dihydro-1H-isoindol-2-yl)phenyl]-3-[(4-methyl-4H-1,2,4-triazol-3-yl)methyl]cyclobutane-1-carbonitrile]", "values": [
      {"measurement": "DC50", "result": "> 500", "unit": "nM"}
    ]},
    {"smiles": "C[C@@H]1c2nc(N3CCC(O[C@H]4CC[C@H](CN5CCN(Cc6cc7c(c(C(F)(F)F)c6)CN(c6cccc(C8(Cc9nncn9C)CC(C#N)C8)c6)C7=O)C6(CC6)C5)CC4)CC3)ccc2C(=O)N1C1CCC(=O)NC1=O", "note": "(single isomer, unassigned) [Example 305, (1r***,3r***)-3-[(4-methyl-4H-1,2,4-triazol-3-yl)methyl]-3-(3-{1-oxo-6-[(7-{[(1r**,4r**)-4-({1-[(7R*)-6-(2,6-dioxopiperidin-3-yl)-7-methyl-5-oxo-5H,6H,7H-pyrrolo[3,4-b]pyridin-2-yl]piperidin-4-yl}oxy)cyclohexyl]methyl}-4,7-diazaspiro[2.5]octan-4-yl)methyl]-4-(trifluoromethyl)-2,3-dihydro-1H-isoindol-2-yl}phenyl)cyclobutane-1-carbonitrile]", "values": [
      {"measurement": "DC50", "result": "> 500", "unit": "nM"}
    ]},
    {"smiles": "C[C@@H]1c2nc(N3CCC(O[C@H]4CC[C@H](CN5CCN(Cc6cc7c(c(C(F)(F)F)c6)CN(c6cccc(C8(Cc9nncn9C)CC(C#N)C8)c6)C7=O)C(C)(C)C5)CC4)CC3)ccc2C(=O)N1C1CCC(=O)NC1=O", "note": "(single isomer, unassigned) [Example 308, (1r***,3r***)-3-(3-{6-[(2,2-dimethyl-4-{[(1r**,4r**)-4-({1-[(7R*)-6-(2,6-dioxopiperidin-3-yl)-7-methyl-5-oxo-5H,6H,7H-pyrrolo[3,4-b]pyridin-2-yl]piperidin-4-yl}oxy)cyclohexyl]methyl}piperazin-1-yl)methyl]-1-oxo-4-(trifluoromethyl)-2,3-dihydro-1H-isoindol-2-yl}phenyl)-3-[(4-methyl-4H-1,2,4-triazol-3-yl)methyl]cyclobutane-1-carbonitrile]", "values": [
      {"measurement": "DC50", "result": "> 500", "unit": "nM"}
    ]},
    {"smiles": "C[C@@H]1c2nc(N3CCC(O[C@H]4CC[C@H](CN5CCN(Cc6cc7c(c(C(F)(F)F)c6)CN(c6cccc(C8(Cc9nncn9C)CC(C#N)C8)c6)C7=O)C(C)(C)C5)CC4)CC3)ccc2C(=O)N1C1CCC(=O)NC1=O", "note": "(single isomer, unassigned) [Example 309, (1r***,3r***)-3-(3-{6-[(2,2-dimethyl-4-{[(1r**,4r**)-4-({1-[(7R*)-6-(2,6-dioxopiperidin-3-yl)-7-methyl-5-oxo-5H,6H,7H-pyrrolo[3,4-b]pyridin-2-yl]piperidin-4-yl}oxy)cyclohexyl]methyl}piperazin-1-yl)methyl]-1-oxo-4-(trifluoromethyl)-2,3-dihydro-1H-isoindol-2-yl}phenyl)-3-[(4-methyl-4H-1,2,4-triazol-3-yl)methyl]cyclobutane-1-carbonitrile]", "values": [
      {"measurement": "DC50", "result": "> 500", "unit": "nM"}
    ]},
    {"smiles": "C[C@@H]1c2nc(N3CCC(O[C@H]4CC[C@H](CN5CCN(Cc6cc7c(c(C(F)(F)F)c6)CN(c6cccc(C8(Cc9nncn9C)CC(C#N)C8)c6)C7=O)CC5(C)C)CC4)CC3)ccc2C(=O)N1C1CCC(=O)NC1=O", "note": "(single isomer, unassigned) [Example 313, (1r***,3r***)-3-(3-{6-[(3,3-dimethyl-4-{[(1r**,4r**)-4-({1-[(7R*)-6-(2,6-dioxopiperidin-3-yl)-7-methyl-5-oxo-5H,6H,7H-pyrrolo[3,4-b]pyridin-2-yl]piperidin-4-yl}oxy)cyclohexyl]methyl}piperazin-1-yl)methyl]-1-oxo-4-(trifluoromethyl)-2,3-dihydro-1H-isoindol-2-yl}phenyl)-3-[(4-methyl-4H-1,2,4-triazol-3-yl)methyl]cyclobutane-1-carbonitrile]", "values": [
      {"measurement": "DC50", "result": "> 500", "unit": "nM"}
    ]},
    {"smiles": "Cc1cc(N2CCC(CN3CCC4(CC3)CN(c3cc5c(c(C(F)(F)F)c3)CN(c3cccc(C6(Cc7nncn7C)COC6)c3)C5=O)C4)CC2)c(F)c2c1C(=O)N(C1CCC(=O)NC1=O)C2", "note": "(stereo not drawn) [Example 12, 3-{4-fluoro-7-methyl-5-[4-({2-[2-(3-{3-[(4-methyl-4H-1,2,4-triazol-3-yl)methyl]oxetan-3-yl}phenyl)-3-oxo-7-(trifluoromethyl)-2,3-dihydro-1H-isoindol-5-yl]-2,7-diazaspiro [3.5]nonan-7-yl}methyl)piperidin-1-yl]-1-oxo-2,3-dihydro-1H-isoindol-2-yl}piperidine-2,6-dione]", "values": [
      {"measurement": "DC50", "result": "< 5", "unit": "nM"},
      {"measurement": "Dmax", "result": "> 70", "unit": "%"}
    ]},
    {"smiles": "Cn1cnnc1C[C@]1(c2cccc(N3Cc4c(cc(CN5CCN(C[C@H]6CC[C@H](OC7CCN(c8ccc9c(c8F)CN(C8CCC(=O)NC8=O)C9=O)CC7)CC6)CC5)cc4C(F)(F)F)C3=O)c2)C[C@@H](C#N)C1", "note": "(stereo partly drawn) [Example 14, (1s, 3s)-3-[(4-methyl-4H-1,2,4-triazol-3-yl)methyl]-3-(3-{1-oxo-6-[(4-{[(1r, 4r)-4-({1-[2-(2,6-dioxopiperidin-3-yl)-4-fluoro-1-oxo-2,3-dihydro-1H-isoindol-5-yl]piperidin-4-yl}oxy)cyclohexyl]methyl}piperazin-1-yl)methyl]-4-(trifluoromethyl)-2,3-dihydro-1H-isoindol-2-yl}phenyl)cyclobutane-1-carbonitrile]", "values": [
      {"measurement": "DC50", "result": "< 5", "unit": "nM"},
      {"measurement": "Dmax", "result": "35 to 70", "unit": "%"}
    ]},
    {"smiles": "Cn1cnnc1CC1(c2cccc(N3Cc4c(cc(CN5CCN(C[C@H]6CC[C@H](OC7CCN(c8ccc9c(c8Cl)CN(C8CCC(=O)NC8=O)C9=O)CC7)CC6)CC5)cc4C(F)(F)F)C3=O)c2)COC1", "note": "(stereo partly drawn) [Example 24, 3-[4-chloro-1-oxo-5-(4-{[(1r,4r)-4-[(4-{[2-(3-{3-[(4-methyl-4H-1,2,4-triazol-3-yl)methyl]oxetan-3-yl}phenyl)-3-oxo-7-(trifluoromethyl)-2,3-dihydro-1H-isoindol-5-yl]methyl}piperazin-1-yl)methyl]cyclohexyl]oxy}piperidin-1-yl)-2,3-dihydro-1H-isoindol-2-yl]piperidine-2,6-dione]", "values": [
      {"measurement": "DC50", "result": "< 5", "unit": "nM"},
      {"measurement": "Dmax", "result": "> 70", "unit": "%"}
    ]}
  ]
}
